US20220033397A1, “PHARMACEUTICAL COMPOUNDS AND THEIR USE AS INHIBITORS OF UBIQUITIN SPECIFIC PROTEASE 19 (USP19)” (ALMAC DISCOVERY LIMITED, priority 2018, published 2022)

Biological target: T1, Full-length USP19 (Homo sapiens, UniProt O94966)
T1 construct: Full-length USP19 was purchased from Boston Biochem (E-576); purchased Boston Biochem E-576
T1 sequence (O94966 1-1318): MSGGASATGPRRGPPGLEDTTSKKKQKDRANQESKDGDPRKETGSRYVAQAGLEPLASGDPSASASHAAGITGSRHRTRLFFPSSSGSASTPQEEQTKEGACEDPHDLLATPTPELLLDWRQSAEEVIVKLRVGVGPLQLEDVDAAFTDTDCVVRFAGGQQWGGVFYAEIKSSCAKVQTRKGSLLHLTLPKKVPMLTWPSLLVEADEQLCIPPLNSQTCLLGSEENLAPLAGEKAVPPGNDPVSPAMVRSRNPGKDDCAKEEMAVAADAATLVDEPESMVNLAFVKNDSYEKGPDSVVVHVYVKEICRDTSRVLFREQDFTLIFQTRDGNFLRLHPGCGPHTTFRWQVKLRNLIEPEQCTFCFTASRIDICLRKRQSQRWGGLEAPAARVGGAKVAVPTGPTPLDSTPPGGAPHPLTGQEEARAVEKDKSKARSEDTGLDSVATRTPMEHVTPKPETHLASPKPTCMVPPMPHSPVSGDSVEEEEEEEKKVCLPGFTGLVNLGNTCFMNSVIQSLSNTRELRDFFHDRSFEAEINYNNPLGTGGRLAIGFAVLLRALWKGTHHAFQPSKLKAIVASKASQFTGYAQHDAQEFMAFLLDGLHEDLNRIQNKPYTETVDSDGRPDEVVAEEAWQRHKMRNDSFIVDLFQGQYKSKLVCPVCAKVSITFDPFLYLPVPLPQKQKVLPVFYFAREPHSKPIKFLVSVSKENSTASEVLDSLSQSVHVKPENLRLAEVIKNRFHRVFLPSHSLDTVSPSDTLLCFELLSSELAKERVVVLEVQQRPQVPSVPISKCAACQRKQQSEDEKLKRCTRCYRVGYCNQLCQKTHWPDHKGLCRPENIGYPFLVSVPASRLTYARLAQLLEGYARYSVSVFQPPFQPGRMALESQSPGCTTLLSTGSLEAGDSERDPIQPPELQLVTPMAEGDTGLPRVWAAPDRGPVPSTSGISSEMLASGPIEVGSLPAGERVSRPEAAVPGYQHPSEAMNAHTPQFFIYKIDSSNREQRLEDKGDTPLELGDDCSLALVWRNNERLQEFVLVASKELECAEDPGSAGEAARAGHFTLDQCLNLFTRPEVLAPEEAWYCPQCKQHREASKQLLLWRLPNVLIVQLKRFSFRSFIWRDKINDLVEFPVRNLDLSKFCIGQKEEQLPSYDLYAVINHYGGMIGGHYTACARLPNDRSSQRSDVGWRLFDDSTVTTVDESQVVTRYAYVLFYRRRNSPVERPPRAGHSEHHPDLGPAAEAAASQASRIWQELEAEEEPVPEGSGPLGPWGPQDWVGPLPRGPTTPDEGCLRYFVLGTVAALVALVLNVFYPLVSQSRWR
Assay: USP19 fluorescence polarisation (FP) homogeneous assay with Ubiquitin-Lys-TAMRA substrate
Assay type: biochemical
Settings: 2.5 nM USP19, 30 min pre-incubation, average of at least two duplicate experiments
Summary of the method: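 Full-length USP19 preincubated 30 min at RT with inhibitor (200 μM to 2 μM series, 8–18 points) before adding 500 nM Ubiquitin-Lys-TAMRA substrate.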

IC50 [µM] | Structure (SMILES)
0.5 to 5 | CC1(C)CCC(N2CCN(CC3(O)CCN(C(=O)NCc4ccccc4)CC34CCCC4)C(=O)C2)CC1 (stereo not shown) [Example 115, N-Benzyl-10-((4-(4,4-dimethylcyclohexyl)-2-oxopiperazin-1-yl)methyl)-10-hydroxy-7-azaspiro[4.5]decane-7-carboxamide]
5 to 50 | C[C@H](CC(F)(F)F)C(=O)N1CCC(O)(CN2CCN(C3CCC(C)(C)CC3)CC2=O)C2(CCCC2)C1 (stereo partly drawn) [Example 116, 4-(4,4-Dimethylcyclohexyl)-1-((10-hydroxy-7-((R)-4,4,4-trifluoro-2-methylbutanoyl)-7-azaspiro[4.5]decan-10-yl)methyl)Piperazin-2-one]
5 to 50 | O=C1COCCN1CC1(O)CCN(C(=O)N2CCOC[C@H]2c2ccccc2)CC12CCCC2 (stereo partly drawn) [Example 117, 4-((10-Hydroxy-7-((R)-3-phenylmorpholine-4-carbonyl)-7-azaspiro[4.5]decan-10-yl)methyl)morpholin-3-one]
0.5 to 5 | O=C1COCCN1CC1(O)CCN(C(=O)N2CCNC[C@H]2c2ccccc2)CC12CCCC2 (stereo partly drawn) [Example 118, 4-((10-Hydroxy-7-((R)-2-phenylpiperazine-1-carbonyl)-7-azaspiro[4.5]decan-10-yl)methyl)morpholin-3-one]
0.5 to 5 | O=C1Cn2ccnc2CN1CC1(O)CCN(C(=O)N2CCNC[C@H]2c2ccccc2)CC12CCCC2 (stereo partly drawn) [Example 119, 7-((10-Hydroxy-7-((R)-2-phenylpiperazine-1-carbonyl)-7-azaspiro[4.5]decan-10-yl)methyl)-7,8-dihydroimidazo[1,2-a]pyrazin-6(5H)-one]
0.5 to 5 | Cc1nc2ccccc2c(=O)n1CC1(O)CCN(C(=O)[C@H](C)CC2CCCCC2)CC12CCCC2 (stereo partly drawn) [Example 120, 3-((7-((R)-3-Cyclohexyl-2-methylpropanoyl)-10-hydroxy-7-azaspiro[4.5]decan-10-yl)methyl)-2-methylquinazolin-4(3H)-one]
0.5 to 5 | C[C@H](CC1CCCCC1)C(=O)N1CCC(O)(Cn2ccc3ccc(F)cc3c2=O)C2(CCCC2)C1 (stereo partly drawn) [Example 121, 2-((7-((R)-3-Cyclohexyl-2-methylpropanoyl)-10-hydroxy-7-azaspiro[4.5]decan-10-yl)methyl)-7-fluoroisoquinolin-1(2H)-one]
50 to 250 | COc1ccc2ccn(CC3(O)CCN(C(=O)[C@H](C)CC(F)(F)F)CC34CCCC4)c(=O)c2c1 (stereo partly drawn) [Example 122, 2-((10-Hydroxy-7-((R)-4,4,4-trifluoro-2-methylbutanoyl)-7-azaspiro[4.5]decan-10-yl)methyl)-7-methoxyisoquinolin-1(2H)-one]

Further lines, the compound ahead of its results:

Structure (SMILES) | IC50 [µM]
CC1CN(CC2(O)CCN(C(=O)[C@H](C)CC(F)(F)F)CC23CCCC3)C(=O)CO1 (stereo partly drawn) [Example 97, 4-((10-Hydroxy-7-((R)-4,4,4-trifluoro-2-methylbutanoyl)-7-azaspiro[4.5]decan-10-yl)methyl)-6-methylmorpholin-3-one] | 50 to 250
COCC1CCN(CC2(O)CCN(C(=O)[C@H](C)CC(F)(F)F)CC23CCCC3)C(=O)C1 (stereo partly drawn) [Example 98, 1-((10-Hydroxy-7-((R)-4,4,4-trifluoro-2-methylbutanoyl)-7-azaspiro[4.5]decan-10-yl)methyl)-4-(methoxymethyl)piperidin-2-one] | 5 to 50
CC1CC(=O)N(CC2(O)CCN(C(=O)[C@H](C)CC(F)(F)F)CC23CCCC3)CC(C)C1 (stereo partly drawn) [Example 99, 1-((10-Hydroxy-7-((R)-4,4,4-trifluoro-2-methylbutanoyl)-7-azaspiro[4.5]decan-10-yl)methyl)-4,6-dimethylazepan-2-one] | 5 to 50
CCC1CCN(CC2(O)CCN(C(=O)[C@H](C)CC(F)(F)F)CC23CCCC3)C(=O)C1 (stereo partly drawn) [Example 100, 4-Ethyl-1-((10-hydroxy-7-((R)-4,4,4-trifluoro-2-methylbutanoyl)-7-azaspiro[4.5]decan-10-yl)methyl)piperidin-2-one] | 5 to 50
C[C@H](CC(F)(F)F)C(=O)N1CCC(O)(CN2C(=O)CC2c2ccccc2)C2(CCCC2)C1 (stereo partly drawn) [Example 101, 1-((10-Hydroxy-7-((R)-4,4,4-trifluoro-2-methylbutanoyl)-7-azaspiro[4.5]decan-10-yl)methyl)-4-phenylazetidin-2-one] | 50 to 250
C[C@H](CC1CCCCC1)C(=O)N1CCC(O)(CN2Cc3cccnc3C2=O)C2(CCCC2)C1 (stereo partly drawn) [Example 102, 6-((7-((R)-3-Cyclohexyl-2-methylpropanoyl)-10-hydroxy-7-azaspiro[4.5]decan-10-yl)methyl)-5,6-dihydro-7H-pyrrolo[3,4-b]pyridin-7-one] | 5 to 50
C[C@H](CC1CCCCC1)C(=O)N1CCC(O)(CN2Cc3ncccc3C2=O)C2(CCCC2)C1 (stereo partly drawn) [Example 103, 6-((7-((R)-3-Cyclohexyl-2-methylpropanoyl)-10-hydroxy-7-azaspiro[4.5]decan-10-yl)methyl)-6,7-dihydro-5H-pyrrolo[3,4-b]pyridin-5-one] | 0.5 to 5
C[C@H](CC(F)(F)F)C(=O)N1CCC(O)(CN2Cc3ncccc3C2=O)C2(CCCC2)C1 (stereo partly drawn) [Example 104, 6-((10-Hydroxy-7-((R)-4,4,4-trifluoro-2-methylbutanoyl)-7-azaspiro[4.5]decan-10-yl)methyl)-6,7-dihydro-5H-pyrrolo[3,4-b]pyridin-5-one] | 50 to 250
C[C@H](CC(F)(F)F)C(=O)N1CCC(O)(CN2Cc3cnccc3C2=O)C2(CCCC2)C1 (stereo partly drawn) [Example 106, 2-((10-Hydroxy-7-((R)-4,4,4-trifluoro-2-methylbutanoyl)-7-azaspiro[4.5]decan-10-yl)methyl)-2,3-dihydro-1H-pyrrolo[3,4-c]pyridin-1-one] | 50 to 250
O=C1CN(C(=O)c2ccccc2)CCN1CC1(O)CCN(C(=O)NCc2ccccc2)CC12CCCC2 (stereo not shown) [Example 107, 10-((4-Benzoyl-2-oxopiperazin-1-yl)methyl)-N-benzyl-10-hydroxy-7-azaspiro[4.5]decane-7-carboxamide] | 5 to 50
C[C@H](CC(F)(F)F)C(=O)N1CCC(O)(CN2CCN(C(=O)c3ccccc3)CC2=O)C2(CCCC2)C1 (stereo partly drawn) [Example 108, 4-Benzoyl-1-((10-hydroxy-7-((R)-4,4,4-trifluoro-2-methylbutanoyl)-7-azaspiro[4.5]decan-10-yl)methyl)Piperazin-2-one] | 5 to 50
O=C1CN(c2ccccc2)CCN1CC1(O)CCN(C(=O)NCc2ccccc2)CC12CCCC2 (stereo not shown) [Example 109, N-Benzyl-10-hydroxy-10-((2-oxo-4-phenylpiperazin-1-yl)methyl)-7-azaspiro[4.5]decane-7-carboxamide] | < 0.5
C[C@H](CC(F)(F)F)C(=O)N1CCC(O)(CN2CCN(c3ccccc3)CC2=O)C2(CCCC2)C1 (stereo partly drawn) [Example 110, 1-((10-Hydroxy-7-((R)-4,4,4-trifluoro-2-methylbutanoyl)-7-azaspiro[4.5]decan-10-yl)methyl)-4-phenylpiperazin-2-one] | < 0.5
CC(=O)N1CCN(CC2(O)CCN(C(=O)NCc3ccccc3)CC23CCCC3)C(=O)C1 (stereo not shown) [Example 111, 10-((4-Acetyl-2-oxopiperazin-1-yl)methyl)-N-benzyl-10-hydroxy-7-azaspiro[4.5]decane-7-carboxamide] | 5 to 50
CC(=O)N1CCN(CC2(O)CCN(C(=O)[C@H](C)CC(F)(F)F)CC23CCCC3)C(=O)C1 (stereo partly drawn) [Example 112, 4-Acetyl-1-((10-hydroxy-7-((R)-4,4,4-trifluoro-2-methylbutanoyl)-7-azaspiro[4.5]decan-10-yl)methyl)piperazin-2-one] | 5 to 50
C[C@H](CC(F)(F)F)C(=O)N1CCC(O)(CN2CCN(c3ccccn3)CC2=O)C2(CCCC2)C1 (stereo partly drawn) [Example 113, 1-((10-Hydroxy-7-((R)-4,4,4-trifluoro-2-methylbutanoyl)-7-azaspiro[4.5]decan-10-yl)methyl)-4-(pyridin-2-yl)piperazin-2-one] | < 0.5
C[C@H](CC1CCCCC1)C(=O)N1CCC(O)(CN2CCN(C)CC2=O)C2(CCCC2)C1 (stereo partly drawn) [Example 114, 1-((7-((R)-3-Cyclohexyl-2-methylpropanoyl)-10-hydroxy-7-azaspiro[4.5]decan-10-yl)methyl)-4-methylpiperazin-2-one] | 0.5 to 5
